Tests used:
Drosophila fruit flies = test: Fruit fly feeding: misincorporation of BMAA into proteins by LC/MS/MS; assay type: in vivo, Drosophila melanogaster; conditions: media with 25 mM BMAA and 25 mM L-Serine vs 25 mM BMAA, three days of feeding
Description: Thirty flies were from each treatment were weighed and sonicated (Fisher Scientific sonic dismembrator model 100; 2 watts for 30 secs) in 10% trichloroacetic acid (TCA 72 μg/μl). TCA extraction was completed in two steps 20 h at 4° C. using one half the TCA volume followed by centrifugation ([…] for 3 min, Labnet Spectrafuge™ 16M microcentrifuge) and removal of supernatant. This was followed by a second sonication and extraction, 5 hours at room temperature using an equal volume of TCA, followed by centrifugation and removal of supernatant. The supernatants were pooled (with the exception of 50 μl removed from the last extraction) and centrifuge filtered (0.22 μm Ultrafree®-MC, Millipore). The remaining protein pellet was transferred to a glass vial and hydrolyzed in 6 M HCl for 16 hours at 110° C. (58 μg/μl). […] Extracts were diluted and derivatized with 6-aminoquinolyl-N-hydroxysuccinimidyl carbamate (AQC) and analyzed by LC-MS/MS.
6-Aminoquinolyl-N-hydroxysuccinimidyl carbamate derivates (AQC Waters AccQTag reagent, P/N WAT052880) were analyzed using a triple quadrupole instrument (Thermo Scientific Finnigan TSQ Quantum Ultra, San Jose, CA) after separation by a Waters Acquity-UHPLC system with a Binary Solvent Manager, Sample Manager and a Waters AccQTag Ultra column (part#186003837, 2.1×100 mm) at 55° C. […]

MRC-5 cells = test: Autofluorescence imaging of cells; assay type: cell-based, human; conditions: BMAA 300 μM with L-serine 300 μM, 96 hours
Description: MRC-5 cells were incubated in DMEM supplemented with 300 μM BMAA in the presence or absence of 300 μM L-serine for 96 hours with daily medium changes. Cellular autofluorescence was visualized using an inverted fluorescent microscope (Olympus IX71) as described previously (Dunlop, et al., Biochem J 410, 131-140 (2008)).

N[C@@H](CO)C(=O)O [L-serine]
effect on amount of BMAA misincorporation into proteins (Drosophila fruit flies): reduces BMAA incorporation into proteins | effect on amount of BMAA misincorporation into proteins (Drosophila fruit flies; listed as L-Serine): reduced by half | effect on BMAA-induced formation of autofluorescent bodies (MRC-5 cells): prevented the formation of autofluorescent bodies
